Results on one molecule are retold here after patent publication US12329851B2 (MedinCell S.A., priority 2021, dated 2025).

The nature of this data set: Population pharmacokinetics (PopPK) modeling. Also noted: species or system human. As to conditions: after sc Risperidone formulation.

Description: The general procedures that were followed for PopPK model development are outlined below: • 1. Exploratory data analysis • 2. Base structural model development • 3. Evaluation of covariate effects • 4. Model refinement • 5. Model evaluation
This was a one compartment model, with a first order and transit compartment absorption routes and a first-order elimination.
Predicted risperidone concentration from the parent model was used as input into the metabolite central compartment.
Finally, model estimated parent and metabolite levels were used to calculate TAM exposure, which was used for PK evaluation and simulations as well as for exposure-response evaluation of safety and efficacy.

As for `Cc1nc2n(c(=O)c1CCN1CCC(c3noc4cc(F)ccc34)CC1)CCCC2O` (stereo not shown) [9-OH-risperidone, 9-hydroxy-risperidone], the “final PopPK model estimate for clearance (CL)” value was 5.78 L/h.
